Measurements from PubChem BioAssay AID330 (DTP/NCI, 2004).
Values joined by “and” are separate entries in the source; they are usually repeats but may differ in a detail not shown here. Equal values may be shown once. Inconclusive results and toxic doses are left out.

System: P388 leukemia ip, CD2F1 mice, survival T/C
Test: NCI In Vivo Anticancer Drug Screen. Data for tumor model P388 Leukemia (intraperitoneal) in CD2F1 (CDF1) mice
Settings: endpoint: median survival time, higher = longer survival
Procedure, shortened: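 Mice carrying the transplanted tumor received test compound or vehicle. Survival was recorded in each group, and the value is the treated-group measurement divided by that of the vehicle-treated control group.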

[1] = dose: 50.0 mg/kg/injection, schedule: Q01DX005 (ip), vehicle: Klucel (hydroxypropylcellulose) (HPC)
[2] = dose: 100.0 mg/kg/injection, schedule: Q01DX005 (ip), vehicle: Klucel (hydroxypropylcellulose) (HPC)
[3] = dose: 200.0 mg/kg/injection, schedule: Q01DX005 (ip), vehicle: Klucel (hydroxypropylcellulose) (HPC)
[4] = dose: 50.0 mg/kg/injection, schedule: Q01DX009 (ip), vehicle: saline with Tween-80
[5] = dose: 100.0 mg/kg/injection, schedule: Q01DX009 (ip), vehicle: saline with Tween-80

In the case of `CCCCOc1cccc2c(NCCCNCCCNc3c4ccccc4nc4c(OCCCC)cccc34)c3ccccc3nc12`, the T/C (dose: 0.63 mg/kg/injection, schedule: Q01DX009 (ip), vehicle: other) was 114 % of control, the T/C (dose: 1.25 mg/kg/injection, schedule: Q01DX009 (ip), vehicle: other) was 121 % of control and the T/C (dose: 2.5 mg/kg/injection, schedule: Q01DX009 (ip), vehicle: other) was 120 % of control and 124 % of control. The T/C (dose: 5.0 mg/kg/injection, schedule: Q01DX009 (ip), vehicle: other) was 100 % of control.
In the case of `Cc1c(N)n[nH]c1-c1ccccc1`, the T/C (dose: 50.0 mg/kg/injection, schedule: Q01DX001 (ip), vehicle: Klucel (hydroxypropylcellulose) (HPC)) was 100 % of control, the T/C (dose: 100.0 mg/kg/injection, schedule: Q01DX001 (ip), vehicle: Klucel (hydroxypropylcellulose) (HPC)) was 99 % of control and the T/C (dose: 200.0 mg/kg/injection, schedule: Q01DX001 (ip), vehicle: Klucel (hydroxypropylcellulose) (HPC)) was 106 % of control.
`COc1ccc(NC(=O)N(C)C)cc1OC` was tested, and the T/C (dose: 100.0 mg/kg/injection, schedule: Q04DX003 (ip), vehicle: saline) was 101 % of control, the T/C (dose: 200.0 mg/kg/injection, schedule: Q04DX003 (ip), vehicle: saline) was 107 % of control and the T/C (dose: 400.0 mg/kg/injection, schedule: Q04DX003 (ip), vehicle: saline) was 105 % of control.
For `CC1=NN(C(=O)c2ccc(Cl)cc2)C(=O)C1N=Nc1ccc(S(=O)(=O)Nc2nc(C)cc(C)n2)cc1` (stereo unspecified), the T/C (dose: 100.0 mg/kg/injection, schedule: Q01DX001 (ip), vehicle: saline with Tween-80) was 92 % of control, the T/C (dose: 200.0 mg/kg/injection, schedule: Q01DX001 (ip), vehicle: saline with Tween-80) was 86 % of control and the T/C (dose: 400.0 mg/kg/injection, schedule: Q01DX001 (ip), vehicle: saline with Tween-80) was 89 % of control.
In the case of `c1cc(-c2cc3ccc(C4=NCCN4)cc3[nH]2)ccc1C1=NCCN1`, the T/C (dose: 6.25 mg/kg/injection, schedule: Q04DX003 (ip), vehicle: saline) was 116 % of control, the T/C (dose: 12.5 mg/kg/injection, schedule: Q04DX003 (ip), vehicle: saline) was 118 % of control and the T/C (dose: 50.0 mg/kg/injection, schedule: Q04DX003 (ip), vehicle: saline) was 154 % of control and 171 % of control and 172 % of control.
With `O=NNc1c2ccccc2nc2ccccc12` the T/C (dose: 0.09 mg/kg/injection, schedule: Q01DX009 (ip), vehicle: water) was 99 % of control, the T/C (dose: 0.18 mg/kg/injection, schedule: Q01DX009 (ip), vehicle: water) was 95 % of control and the T/C (dose: 0.37 mg/kg/injection, schedule: Q01DX009 (ip), vehicle: water) was 101 % of control. The T/C (dose: 0.75 mg/kg/injection, schedule: Q01DX009 (ip), vehicle: water) was 104 % of control and the T/C (dose: 1.5 mg/kg/injection, schedule: Q01DX009 (ip), vehicle: water) was 86 % of control.
With `CN(C)C1CCc2ccc3ccccc3c2C1=O` (stereo unspecified) the T/C [1] was 98 % of control and the T/C [2] was 103 % of control.
In the case of `COc1cc2cccc(OC)c(=O)c2c(OC)c1OC`, the T/C [1] was 92 % of control, the T/C [2] was 100 % of control and the T/C [3] was 90 % of control.
`CCOC(=O)c1ccc(NC(=O)Nc2cc(OC)ccc2OC)cc1` was tested, and the T/C (dose: 60.0 mg/kg/injection, schedule: Q01DX005 (ip), vehicle: Klucel (hydroxypropylcellulose) (HPC)) was 98 % of control, the T/C (dose: 120.0 mg/kg/injection, schedule: Q01DX005 (ip), vehicle: Klucel (hydroxypropylcellulose) (HPC)) was 99 % of control and the T/C (dose: 240.0 mg/kg/injection, schedule: Q01DX005 (ip), vehicle: Klucel (hydroxypropylcellulose) (HPC)) was 101 % of control.
With `CC(C)CCCCCCCCCCCCC(=O)NC1C(C)OC(Nc2ncnc3nc[nH]c23)C(O)C1O` (stereo unspecified) the T/C (dose: 0.5 mg/kg/injection, schedule: Q01DX009 (ip), vehicle: other) was 107 % of control, the T/C (dose: 1.0 mg/kg/injection, schedule: Q01DX009 (ip), vehicle: other) was 109 % of control and the T/C (dose: 2.0 mg/kg/injection, schedule: Q01DX009 (ip), vehicle: other) was 98 % of control. The T/C (dose: 4.0 mg/kg/injection, schedule: Q01DX009 (ip), vehicle: other) was 106 % of control, the T/C (dose: 6.25 mg/kg/injection, schedule: Q01DX009 (ip), vehicle: other) was 104 % of control and the T/C (dose: 8.0 mg/kg/injection, schedule: Q01DX009 (ip), vehicle: other) was 106 % of control. The T/C (dose: 12.5 mg/kg/injection, schedule: Q01DX009 (ip), vehicle: other) was 91 % of control, the T/C (dose: 25.0 mg/kg/injection, schedule: Q01DX009 (ip), vehicle: other) was 88 % of control and the T/C (dose: 50.0 mg/kg/injection, schedule: Q01DX009 (ip), vehicle: other) was 91 % of control.
For `COC(=O)C1(C(=O)OC)C2C=CCC21` (stereo unspecified), the T/C [4] was 96 % of control, the T/C [5] was 102 % of control and the T/C (dose: 200.0 mg/kg/injection, schedule: Q01DX009 (ip), vehicle: saline with Tween-80) was 104 % of control.
In the case of `S=C(NCCl)NCc1ccccc1`, the T/C [1] was 105 % of control, the T/C [2] was 100 % of control and the T/C [3] was 105 % of control.
For `CC1(C)/C=C/C2=Nc3cc(Br)c(Br)c(Br)c3C23CC(=O)N3/C=C(\Cl)c2nc(Br)[nH]c21` (stereo unspecified), the T/C (dose: 0.7 mg/kg/injection, schedule: Q01DX005 (ip), vehicle: Klucel (hydroxypropylcellulose) (HPC)) was 106 % of control, the T/C (dose: 1.4 mg/kg/injection, schedule: Q01DX005 (ip), vehicle: Klucel (hydroxypropylcellulose) (HPC)) was 101 % of control and the T/C (dose: 2.8 mg/kg/injection, schedule: Q01DX005 (ip), vehicle: Klucel (hydroxypropylcellulose) (HPC)) was 97 % of control. For the same molecule, the T/C (dose: 5.6 mg/kg/injection, schedule: Q01DX005 (ip), vehicle: Klucel (hydroxypropylcellulose) (HPC)) was 112 % of control.
`O=C(Nc1ccc(Br)c2c(NC(=O)c3ccccc3)ccc(Br)c12)c1ccccc1` was tested, and the T/C (dose: 1.5 mg/kg/injection, schedule: Q01DX009 (ip), vehicle: saline with Tween-80) was 100 % of control, the T/C (dose: 3.0 mg/kg/injection, schedule: Q01DX009 (ip), vehicle: saline with Tween-80) was 90 % of control and the T/C (dose: 6.0 mg/kg/injection, schedule: Q01DX009 (ip), vehicle: saline with Tween-80) was 90 % of control.
For `Cc1csc(NC(=O)Nc2ccc(F)cc2[N+](=O)[O-])n1`, the T/C (dose: 25.0 mg/kg/injection, schedule: Q01DX009 (ip), vehicle: Klucel (hydroxypropylcellulose) (HPC)) was 106 % of control, the T/C (dose: 50.0 mg/kg/injection, schedule: Q01DX009 (ip), vehicle: Klucel (hydroxypropylcellulose) (HPC)) was 97 % of control and the T/C [4] was 105 % of control. The T/C (dose: 100.0 mg/kg/injection, schedule: Q01DX009 (ip), vehicle: Klucel (hydroxypropylcellulose) (HPC)) was 100 % of control, the T/C [5] was 94 % of control and the T/C (dose: 200.0 mg/kg/injection, schedule: Q01DX009 (ip), vehicle: Klucel (hydroxypropylcellulose) (HPC)) was 95 % of control.
`O=C(O)/C=C(O)/C=C/c1ccccc1` was tested, and the T/C (dose: 100.0 mg/kg/injection, schedule: Q04DX003 (ip), vehicle: saline with Tween-80) was 92 % of control, the T/C (dose: 200.0 mg/kg/injection, schedule: Q04DX003 (ip), vehicle: saline with Tween-80) was 101 % of control and the T/C (dose: 400.0 mg/kg/injection, schedule: Q04DX003 (ip), vehicle: saline with Tween-80) was 101 % of control.
With `CC(=O)N1C(=O)C2C3C=CC(C3)C2C(=O)N1C(C)=O` (stereo unspecified) the T/C (dose: 6.25 mg/kg/injection, schedule: Q01DX009 (ip), vehicle: saline with Tween-80) was 96 % of control, the T/C (dose: 12.5 mg/kg/injection, schedule: Q01DX009 (ip), vehicle: saline with Tween-80) was 97 % of control and the T/C (dose: 25.0 mg/kg/injection, schedule: Q01DX009 (ip), vehicle: saline with Tween-80) was 102 % of control. For the same molecule, the T/C [4] was 106 % of control and 86 % of control.
`CCOc1ccccc1N=Nc1c(-c2ccccc2)nn(C(=S)S)c1-c1ccccc1` was tested, and the T/C (dose: 50.0 mg/kg/injection, schedule: Q01DX005 (ip), vehicle: saline with Tween-80) was 107 % of control, the T/C (dose: 100.0 mg/kg/injection, schedule: Q01DX005 (ip), vehicle: saline with Tween-80) was 109 % of control and the T/C (dose: 200.0 mg/kg/injection, schedule: Q01DX005 (ip), vehicle: saline with Tween-80) was 110 % of control.
In the case of `C[N+](C)(CCCCCC[N+](C)(C)C1c2ccccc2-c2ccccc21)C1c2ccccc2-c2ccccc21`, the T/C (dose: 0.13 mg/kg/injection, schedule: Q01DX009 (ip), vehicle: saline) was 105 % of control, the T/C (dose: 0.25 mg/kg/injection, schedule: Q01DX009 (ip), vehicle: saline) was 105 % of control and the T/C (dose: 0.5 mg/kg/injection, schedule: Q01DX009 (ip), vehicle: saline) was 102 % of control. The T/C (dose: 1.0 mg/kg/injection, schedule: Q01DX009 (ip), vehicle: saline) was 101 % of control.
